Usually Km stands for the substrate concentration at which the rate is half of its maximum.

From paper PMC6017068, “Cloning and Functional Characterization of Two 4-Coumarate: CoA Ligase Genes from Selaginella moellendorffii” (Molecules : A Journal of Synthetic Chemistry and Natural …, 2018) come the findings set out here.

Type in all cases: biochemical
Holding throughout (details): ATP, MgCl2, 200 mM Tris-HCl, optimal pH about 7.0, optimal temperature 50 °C

The target in test [1] is T1, Sm4CL2 (Selaginella moellendorffii, UniProt D8S6A2).
T1 construct: gene 4CL2-1; 75-79 kDa with tags (tags kept)
Kind of test: UV absorption at […] nm, CoA ester formation.

Test [2] concerns the target T1, Sm4CL2. Put plainly: UV absorption at […] nm, CoA ester formation. This is another data set of the same source.
Test [3] deals with T1, Sm4CL2. Kind of test: HPLC quantification of CoA ester after […] min.
For test [4], the target named is T1, Sm4CL2. Kind of test: UV absorption at […] nm, CoA ester formation. The source holds these as a separate data set.

The structures appear in SMILES notation.

T1 sequence (D8S6A2 entry or part of it): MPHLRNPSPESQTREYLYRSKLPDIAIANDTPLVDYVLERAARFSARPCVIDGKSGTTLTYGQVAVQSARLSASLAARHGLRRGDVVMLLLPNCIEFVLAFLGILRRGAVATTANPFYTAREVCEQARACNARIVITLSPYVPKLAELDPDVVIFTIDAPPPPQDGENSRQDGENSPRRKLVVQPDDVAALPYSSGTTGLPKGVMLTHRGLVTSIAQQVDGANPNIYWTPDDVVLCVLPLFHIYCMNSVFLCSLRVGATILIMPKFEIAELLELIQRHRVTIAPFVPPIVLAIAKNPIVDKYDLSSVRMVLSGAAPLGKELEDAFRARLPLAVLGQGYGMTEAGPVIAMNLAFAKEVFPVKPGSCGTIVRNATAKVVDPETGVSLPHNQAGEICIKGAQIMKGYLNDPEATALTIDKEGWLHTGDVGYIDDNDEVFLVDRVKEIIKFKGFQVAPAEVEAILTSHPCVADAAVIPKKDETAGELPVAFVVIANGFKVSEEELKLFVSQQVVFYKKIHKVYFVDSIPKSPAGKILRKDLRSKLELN

As for `O=C(O)/C=C/c1ccc(O)c(O)c1` [caffeic acid], in test [1], the Km is 19 ± 2.61 µM. `O=C(O)/C=C/c1ccccc1` [cinnamic acid]: the Michaelis constant (Km) in test [2] was 127 ± 11.6 µM. Take `O=C(O)CCc1ccc(O)cc1` [dihydro-p-coumaric acid]: the Michaelis-Menten constant (Km) in test [3] was found to be 220 ± 36.9 µM. `COc1cc(/C=C/C(=O)O)ccc1O` [ferulic acid]: in test [1], the Km turned out to be 96 ± 13.4 µM. `O=C(O)/C=C/c1ccc(O)cc1` [p-coumaric acid]: in test [4], the Km was 19.7 ± 2.92 µM.
